Assay results: PubChem BioAssay AID1996
Converted amounts (≈) assume the structure as drawn.

Settings: buffer; pH 7.4; 200.0 µM
Work on `CN(Cc1ccccc1Cl)C(=O)CNC(=O)C12CC3CC(CC(C3)C1)C2` yielded a solubility kinetic of over 56.2 µg/mL. `CCN(C(=O)c1cccs1)c1nc(-c2ccc(OC)cc2)cs1` gave a solubility kinetic of 0.6 µg/mL (≈ 1.74 µM). In the case of `CCS(=O)(=O)N1CCC(C(=O)Nc2cc(C)ccc2O)CC1`, the solubility kinetic is reported as over 49 µg/mL. For `CC1c2ccccc2N(NC(=O)Cc2ccccc2)C1C` (stereo unspecified), the solubility kinetic was over 42.1 µg/mL. For `CC1CC(C)CN(C(=O)COC(=O)c2ccc3ncsc3c2)C1` (stereo unspecified), the solubility kinetic was 44.9 µg/mL (≈ 135 µM). `Cc1cc(C(=O)CSc2nc(N)cc(N)n2)c(C)n1CC1CCCO1` (stereo unspecified) gave a solubility kinetic of over 54.2 µg/mL. In the case of `Cc1cc(C)cc(N2C(=O)C3CCCN3C2=S)c1` (stereo unspecified), the solubility kinetic is reported as over 39.1 µg/mL. In the case of `O=C(c1ccc(Cl)cc1Cl)N1CCc2ccccc21`, the solubility kinetic is reported as 13.9 µg/mL (≈ 47.6 µM). `CC(=O)Nc1ccc(S(=O)(=O)N(C)CC(=O)NC2CCCCCCC2)cc1` showed a solubility kinetic of over 59.3 µg/mL. `Cc1cc(C(=O)OCC(=O)c2ccccc2)c2ccccc2n1` gave a solubility kinetic of 3.6 µg/mL (≈ 11.8 µM). Compound `CN(C)/C(=N\S(=O)(=O)c1ccccc1)c1ccc(Cl)cc1` has a solubility kinetic of over 48.4 µg/mL. Compound `CCOC(=O)C1CCN(c2nc(C)cc(C)c2C#N)CC1` has a solubility kinetic of 36.9 µg/mL (≈ 128 µM). In the case of `OCCC1CN(C/C=C/c2ccco2)CCN1Cc1ccccc1` (stereo unspecified), the solubility kinetic is reported as 40 µg/mL (≈ 123 µM). Compound `CNC(=O)Nc1cccc2cccnc12` has a solubility kinetic of over 30.2 µg/mL. In the case of `Cc1cc(C(=O)N2CCC(C(=O)O)CC2)c(C)o1`, the solubility kinetic is reported as over 37.7 µg/mL. Work on `COc1ccc(CCNC(=O)Cc2ccc([N+](=O)[O-])cc2)cc1OC` yielded a solubility kinetic of 51.3 µg/mL (≈ 149 µM). For `O=c1[nH]c(SCc2cccc(F)c2)nc2ccccc12`, the solubility kinetic was under 0.3 µg/mL. For `Oc1ccc(-c2nccc(-c3ccc(Br)cc3)n2)cc1`, the solubility kinetic was 0.4 µg/mL (≈ 1.22 µM). `Cc1nc(S(=O)(=O)Nc2ccc3c(c2)OCCO3)cn1C` gave a solubility kinetic of 13.1 µg/mL (≈ 42.3 µM). For `O=C(CNC(=O)c1ccc(Br)o1)NCC1CCCO1` (stereo unspecified), the solubility kinetic was over 49.7 µg/mL. `COc1cc(C)c(S(=O)(=O)NOCc2ccc([N+](=O)[O-])cc2)c(C)c1C` showed a solubility kinetic of under 0.4 µg/mL. In the case of `CN1CCN(c2ccccc2/C=N/NC(=O)c2cccnc2)CC1`, the solubility kinetic is reported as over 48.5 µg/mL. In the case of `CC(=O)CC(c1ccccc1)S(=O)(=O)c1ccc([N+](=O)[O-])cc1` (stereo unspecified), the solubility kinetic is reported as over 50 µg/mL. Compound `CC(C)(C)NC(=O)NCc1cccnc1` has a solubility kinetic of 29.4 µg/mL (≈ 142 µM). `COc1cc2[nH]c(=S)n(Cc3cccs3)c(=O)c2cc1OC` gave a solubility kinetic of under 0.4 µg/mL. `CC1CCN(C(=O)c2ccc3c(c2)NC(=O)CN3)CC1` showed a solubility kinetic of over 41 µg/mL. `CCC(C)NC(=O)c1cc2c(=O)n(CC)c3ccccc3c2s1` (stereo unspecified) gave a solubility kinetic of 2.3 µg/mL (≈ 7 µM). Work on `COc1ccc(C(=O)NC2=NCCS2)cc1` yielded a solubility kinetic of over 35.4 µg/mL. In the case of `c1ccc(CCOn2ccnc2)cc1`, the solubility kinetic is reported as over 28.2 µg/mL. Compound `O=C(/C=C/c1ccc(Br)cc1)NCCCn1ccnc1` has a solubility kinetic of 44.2 µg/mL (≈ 132 µM). Compound `O=C(CNS(=O)(=O)c1ccccc1)Nc1ccc(F)cc1F` has a solubility kinetic of over 48.9 µg/mL. Compound `CC(=O)NCCc1nc2cc(NC(=O)c3cccc([N+](=O)[O-])c3)ccc2n1C` has a solubility kinetic of 3.5 µg/mL (≈ 9.18 µM). With `Cl.O[C@@H]1CCCC[C@H]1N1CCC(c2ccccc2)CC1` the solubility kinetic was over 44.4 µg/mL. For `CC(=O)Nc1ccc(C(=O)COC(=O)C2CCCCC2)c(F)c1`, the solubility kinetic was 10.7 µg/mL (≈ 33.3 µM). With `O=c1c2ccccc2nc(Cc2ccccc2)n1-c1ccccc1` the solubility kinetic was 39.5 µg/mL (≈ 126 µM). With `CC1CCc2sc3ncnc(N4CCN(CCO)CC4)c3c2C1` (stereo unspecified) the solubility kinetic was over 49.9 µg/mL. `Cc1cc(OCc2cccc(Cl)c2)c(C)cc1CN1CCOCC1` gave a solubility kinetic of 1 µg/mL (≈ 2.89 µM). `COc1ccc(OCC(=O)OCC(=O)Nc2cc(S(=O)(=O)N3CCOCC3)ccc2Cl)cc1` showed a solubility kinetic of 62.5 µg/mL (≈ 125 µM). For `CCOC(=O)c1sc(NC(=O)C2CCCCC2)nc1C`, the solubility kinetic was 5 µg/mL (≈ 16.9 µM). `COc1ccc(OC)c(Nc2nc(NCCC(C)C)nc(N)c2[N+](=O)[O-])c1` showed a solubility kinetic of under 0.1 µg/mL. Compound `N#Cc1cc(Cl)c(NCC2CCCO2)cc1C#N` (stereo unspecified) has a solubility kinetic of 18.2 µg/mL (≈ 69.5 µM). Compound `CC(C)N(Cc1ccccc1)C(=O)COC(=O)C1CCCCC1` has a solubility kinetic of 46.6 µg/mL (≈ 147 µM). `O=C(CCc1ccccc1)N1CCN(c2ccccc2F)CC1` showed a solubility kinetic of 45.7 µg/mL (≈ 146 µM). `Cn1c(=O)[nH]c2c(Cl)nccc21` gave a solubility kinetic of over 27.5 µg/mL. In the case of `CCN(CC)CCNc1ccc(CO)c2sc3ccccc3c(=O)c12`, the solubility kinetic is reported as over 53.5 µg/mL. With `CCC(=O)NC1OC(CO)C(O)C(O)C1O` (stereo unspecified) the solubility kinetic was over 35.3 µg/mL. With `CC(C)n1cc(/C=C2/NC(=O)NC2=O)c2ccccc21` the solubility kinetic was 0.7 µg/mL (≈ 2.6 µM). Compound `Nc1ncnc(Nc2ccc(F)c(Cl)c2)n1` has a solubility kinetic of 8.4 µg/mL (≈ 35.1 µM). Work on `CCOc1ccc(NC(=S)NCc2ccc3c(c2)OCO3)cc1` yielded a solubility kinetic of 17.1 µg/mL (≈ 51.8 µM). `Fc1ccc(CO/N=C2\CCCc3nonc32)cc1` showed a solubility kinetic of 3 µg/mL (≈ 11.5 µM). For `Cn1c(=O)c2c(ncn2CC(O)CO)n(C)c1=O` (stereo unspecified), the solubility kinetic was over 38.1 µg/mL. Compound `CC(=O)Oc1cccc(N2C(=O)C3C4C=CC(CC4)C3C2=O)c1` (stereo unspecified) has a solubility kinetic of 32.8 µg/mL (≈ 105 µM). `CC1=C(C)CC(C(=O)NCc2ccccn2)C(C(=O)O)C1` (stereo unspecified) gave a solubility kinetic of over 43.3 µg/mL. Compound `C#CCOC(=O)Nc1cc(C)n(-c2ccccc2)n1` has a solubility kinetic of over 38.3 µg/mL. Work on `Cc1ccc2nc(-c3ccccc3)c(CN3CCOCC3)n2c1` yielded a solubility kinetic of over 46.1 µg/mL. `Cc1cc2c(=O)oc(-c3ccc(Br)cc3)nc2s1` showed a solubility kinetic of under 0.7 µg/mL. Compound `CC(C)C(=O)Nc1nnc(SCC(=O)NCC2CCCO2)s1` (stereo unspecified) has a solubility kinetic of over 51.7 µg/mL. Work on `O=C(CCCn1cc([N+](=O)[O-])cn1)NCc1ccccc1` yielded a solubility kinetic of over 43.2 µg/mL. In the case of `O=C1/C(=C/c2ccncc2)N2CCC1CC2`, the solubility kinetic is reported as over 32.1 µg/mL. With `CNCC(=O)O` the solubility kinetic was 5.6 µg/mL (≈ 62.9 µM). Work on `NC(=O)c1ccccc1NS(=O)(=O)c1ccc(F)cc1` yielded a solubility kinetic of over 44.1 µg/mL. In the case of `COc1cc(CN2CCCC(C)C2)ccc1OCc1ccccc1` (stereo unspecified), the solubility kinetic is reported as 42.9 µg/mL (≈ 132 µM). `Cc1cccc(NC(=O)c2cc(-c3ccccn3)nc3ccccc23)c1C` gave a solubility kinetic of 3.5 µg/mL (≈ 9.9 µM). `Cc1cc(C)c(SCCc2ccncc2)c(C)c1` gave a solubility kinetic of 3.1 µg/mL (≈ 12 µM). `Cc1ccc(-c2csc(NC(=O)c3c(C)noc3C)n2)s1` showed a solubility kinetic of 15.8 µg/mL (≈ 49.5 µM). In the case of `O=C(COc1cc(Cl)ccc1Cl)N1CCNC1=O`, the solubility kinetic is reported as over 43.4 µg/mL. Work on `Cc1cc(Br)ccc1NC(=O)C1C2CCC(O2)C1C(=O)O` (stereo unspecified) yielded a solubility kinetic of over 53.1 µg/mL. `C/C(=N\NC(=O)c1ccn(C)n1)c1ccco1` gave a solubility kinetic of over 34.8 µg/mL. Work on `CCN1CCN(C(=O)c2c(-c3ccccc3)noc2C)CC1` yielded a solubility kinetic of 40 µg/mL (≈ 134 µM). Compound `O=C(Cc1ccc(Cl)cc1Cl)NC1CCCCCC1` has a solubility kinetic of 2.2 µg/mL (≈ 7.33 µM). With `O=C(CN1c2cccc3cccc(c23)S1(=O)=O)Nc1ccc(F)c(F)c1F` the solubility kinetic was 2.9 µg/mL (≈ 7.39 µM). Work on `COc1ccc(-c2cc(C(=O)NCc3ccco3)c3ccccc3n2)cc1OC` yielded a solubility kinetic of 1.7 µg/mL (≈ 4.38 µM). With `CCn1c(=O)c2ccccc2n(Cc2cccc([N+](=O)[O-])c2)c1=O` the solubility kinetic was 0.9 µg/mL (≈ 2.77 µM). `O=C(CN1CCC(C(=O)O)CC1)Nc1ccccc1Oc1ccccc1` gave a solubility kinetic of 47.5 µg/mL (≈ 134 µM). Compound `O=C1OC(NCc2cccnc2)(c2ccc(Cl)cc2)c2ccccc21` (stereo unspecified) has a solubility kinetic of over 52.6 µg/mL. `CC(C)(C)C1COc2ccccc2N1C(=O)c1cccc(Cl)c1` (stereo unspecified) showed a solubility kinetic of under 0.7 µg/mL. `Cc1ccc(S(=O)(=O)N2CCOCC2)cc1C(=O)NCCc1ccc(Cl)cc1` gave a solubility kinetic of 26 µg/mL (≈ 61.5 µM). Work on `CC1CCC(NC(=O)CN(C)S(=O)(=O)c2cnc[nH]2)CC1` (stereo unspecified) yielded a solubility kinetic of over 47.2 µg/mL. Compound `COCc1cc(=O)[nH]c(SCC(=O)c2ccccc2)n1` has a solubility kinetic of over 43.6 µg/mL. Work on `N=C1SCC(=O)N1c1ccc(Cl)cc1` yielded a solubility kinetic of over 34 µg/mL. `O=C(O)c1ccc(-n2c(/C=C/c3ccccc3)nc3ccccc3c2=O)cc1` gave a solubility kinetic of over 55.3 µg/mL. In the case of `Cc1noc(C)c1C(=O)Nc1sccc1C(N)=O`, the solubility kinetic is reported as 7.7 µg/mL (≈ 29 µM). In the case of `O=CC1=C(N2CCOCC2)/C(=C\c2ccccc2)CC1`, the solubility kinetic is reported as 32.2 µg/mL (≈ 120 µM). For `CC1(C)[C@H]2CC[C@]1(C)[C@@H](OC(=O)C[N+]1(C)CCOCC1)C2.[I-]`, the solubility kinetic was 60.1 µg/mL. `CCn1c(C(O)c2cc(OC)ccc2OC)nc2ccccc21` (stereo unspecified) gave a solubility kinetic of over 46.9 µg/mL. In the case of `CN(C)C(=O)c1ccc(NC(=O)COC(=O)C2(c3ccccc3)CCCC2)cc1`, the solubility kinetic is reported as 24.3 µg/mL (≈ 61.6 µM).
